Source: ChEMBL document CHEMBL4507319 (2021)

Tests used:
[1] = molecular target: Alpha-2C adrenergic receptor (Homo sapiens) (UniProt P18825); conditions: Compound concentration 10.0 uM
[2] = tested on: Tyrosine-protein kinase ABL1 (Homo sapiens), P00519 [Q252H]; conditions: Compound concentration 1000.0 nM
[3] = molecular target: T1, Serine/threonine-protein kinase ICK (Homo sapiens) (UniProt Q9UPZ9); conditions: Compound concentration 1000.0 nM
T1 sequence (whole entry): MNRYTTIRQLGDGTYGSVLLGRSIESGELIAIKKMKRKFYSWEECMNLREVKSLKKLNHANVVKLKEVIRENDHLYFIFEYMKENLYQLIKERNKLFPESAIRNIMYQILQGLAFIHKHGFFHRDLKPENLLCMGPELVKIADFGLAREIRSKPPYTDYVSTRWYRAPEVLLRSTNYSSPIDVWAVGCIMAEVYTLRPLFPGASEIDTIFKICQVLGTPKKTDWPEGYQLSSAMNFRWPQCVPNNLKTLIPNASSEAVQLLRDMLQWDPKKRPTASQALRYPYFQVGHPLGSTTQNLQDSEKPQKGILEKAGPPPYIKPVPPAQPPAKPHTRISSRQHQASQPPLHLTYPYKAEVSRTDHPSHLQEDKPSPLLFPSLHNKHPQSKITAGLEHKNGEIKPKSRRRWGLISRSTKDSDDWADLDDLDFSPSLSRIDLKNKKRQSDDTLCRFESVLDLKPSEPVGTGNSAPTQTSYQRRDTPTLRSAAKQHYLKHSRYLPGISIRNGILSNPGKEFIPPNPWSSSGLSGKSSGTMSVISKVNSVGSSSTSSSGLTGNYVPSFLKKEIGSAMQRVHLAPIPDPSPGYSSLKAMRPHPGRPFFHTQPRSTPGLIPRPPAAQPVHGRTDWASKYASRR

[4] = molecular target: Cyclin-dependent kinase 4 (Homo sapiens) (UniProt P11802); conditions: Compound concentration 1000.0 nM
[5] = molecular target: 5-hydroxytryptamine receptor 1B (Homo sapiens) (UniProt P28222); conditions: Compound concentration 10.0 uM
[6] = molecular target: Non-receptor tyrosine-protein kinase TYK2 (Homo sapiens) (UniProt P29597); conditions: Compound concentration 1000.0 nM
[7] = molecular target: Alpha-1A adrenergic receptor (Homo sapiens) (UniProt P35348); conditions: Compound concentration 10.0 uM
[8] = molecular target: T2, Serine/threonine-protein kinase ULK1 (Homo sapiens) (UniProt O75385); conditions: Compound concentration 1000.0 nM
T2 sequence (whole entry): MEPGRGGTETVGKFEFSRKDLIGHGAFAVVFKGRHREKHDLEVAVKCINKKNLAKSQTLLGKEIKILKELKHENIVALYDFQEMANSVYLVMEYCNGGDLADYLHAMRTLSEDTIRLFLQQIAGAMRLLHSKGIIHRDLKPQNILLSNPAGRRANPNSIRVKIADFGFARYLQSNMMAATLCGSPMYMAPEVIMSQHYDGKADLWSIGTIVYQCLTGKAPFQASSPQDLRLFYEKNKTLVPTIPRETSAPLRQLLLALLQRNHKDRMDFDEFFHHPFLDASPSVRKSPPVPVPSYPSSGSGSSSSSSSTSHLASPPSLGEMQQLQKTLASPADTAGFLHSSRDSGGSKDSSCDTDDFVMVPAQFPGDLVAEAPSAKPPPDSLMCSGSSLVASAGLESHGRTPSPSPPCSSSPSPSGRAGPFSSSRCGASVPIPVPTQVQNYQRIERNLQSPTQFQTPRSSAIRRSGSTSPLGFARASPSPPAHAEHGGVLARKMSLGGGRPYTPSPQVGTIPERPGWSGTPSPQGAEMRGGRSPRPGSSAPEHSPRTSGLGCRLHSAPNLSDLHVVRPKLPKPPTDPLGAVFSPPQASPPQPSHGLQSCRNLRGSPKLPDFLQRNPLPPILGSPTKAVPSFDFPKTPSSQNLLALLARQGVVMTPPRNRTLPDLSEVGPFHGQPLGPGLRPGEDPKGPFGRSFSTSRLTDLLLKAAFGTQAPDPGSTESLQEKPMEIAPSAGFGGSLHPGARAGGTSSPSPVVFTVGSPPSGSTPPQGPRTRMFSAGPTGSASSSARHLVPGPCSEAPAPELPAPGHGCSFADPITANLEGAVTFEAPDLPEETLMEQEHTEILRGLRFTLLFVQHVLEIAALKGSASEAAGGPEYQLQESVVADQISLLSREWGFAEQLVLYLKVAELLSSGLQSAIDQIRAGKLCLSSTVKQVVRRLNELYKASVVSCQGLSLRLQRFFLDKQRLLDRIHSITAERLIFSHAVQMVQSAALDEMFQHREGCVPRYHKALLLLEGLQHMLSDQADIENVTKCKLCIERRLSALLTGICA

[9] = molecular target: Phosphatidylinositol 4,5-bisphosphate 3-kinase catalytic subunit beta isoform (Homo sapiens) (UniProt P42338); conditions: Compound concentration 1000.0 nM
[10] = molecular target: T3, Tyrosine-protein kinase receptor TYRO3 (Homo sapiens) (UniProt Q06418); conditions: Compound concentration 1000.0 nM
T3 sequence (whole entry): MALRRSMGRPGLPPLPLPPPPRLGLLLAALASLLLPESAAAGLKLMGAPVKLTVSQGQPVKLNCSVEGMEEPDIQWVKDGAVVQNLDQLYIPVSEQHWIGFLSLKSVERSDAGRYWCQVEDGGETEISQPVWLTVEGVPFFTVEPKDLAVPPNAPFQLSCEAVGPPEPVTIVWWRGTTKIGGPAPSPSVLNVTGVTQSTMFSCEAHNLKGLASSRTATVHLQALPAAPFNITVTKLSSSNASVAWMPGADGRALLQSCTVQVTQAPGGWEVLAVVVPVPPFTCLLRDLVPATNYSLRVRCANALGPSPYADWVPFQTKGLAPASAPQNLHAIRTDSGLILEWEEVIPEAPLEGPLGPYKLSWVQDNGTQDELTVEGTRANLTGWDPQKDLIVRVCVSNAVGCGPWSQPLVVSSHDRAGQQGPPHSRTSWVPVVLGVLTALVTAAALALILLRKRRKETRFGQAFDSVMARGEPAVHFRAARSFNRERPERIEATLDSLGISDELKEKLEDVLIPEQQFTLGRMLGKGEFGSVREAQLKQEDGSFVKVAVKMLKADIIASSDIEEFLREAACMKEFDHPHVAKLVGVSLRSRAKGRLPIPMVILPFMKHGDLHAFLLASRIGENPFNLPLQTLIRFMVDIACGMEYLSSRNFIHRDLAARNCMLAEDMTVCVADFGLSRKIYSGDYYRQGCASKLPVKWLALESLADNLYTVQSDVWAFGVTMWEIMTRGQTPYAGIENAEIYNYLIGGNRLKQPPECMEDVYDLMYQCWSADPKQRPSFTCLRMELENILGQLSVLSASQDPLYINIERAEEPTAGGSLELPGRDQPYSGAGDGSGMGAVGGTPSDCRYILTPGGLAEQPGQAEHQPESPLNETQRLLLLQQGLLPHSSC

Sequence of Cyclin-dependent kinase 4 (Homo sapiens) (P11802 whole entry): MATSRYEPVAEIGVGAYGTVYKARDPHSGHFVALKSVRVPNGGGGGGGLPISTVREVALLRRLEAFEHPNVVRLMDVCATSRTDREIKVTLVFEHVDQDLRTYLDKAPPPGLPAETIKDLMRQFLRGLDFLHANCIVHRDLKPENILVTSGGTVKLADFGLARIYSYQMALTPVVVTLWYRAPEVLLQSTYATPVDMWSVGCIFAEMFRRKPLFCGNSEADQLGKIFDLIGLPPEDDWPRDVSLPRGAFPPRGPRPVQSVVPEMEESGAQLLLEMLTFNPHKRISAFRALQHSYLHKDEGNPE
Sequence of Non-receptor tyrosine-protein kinase TYK2 (Homo sapiens) (P29597 whole entry): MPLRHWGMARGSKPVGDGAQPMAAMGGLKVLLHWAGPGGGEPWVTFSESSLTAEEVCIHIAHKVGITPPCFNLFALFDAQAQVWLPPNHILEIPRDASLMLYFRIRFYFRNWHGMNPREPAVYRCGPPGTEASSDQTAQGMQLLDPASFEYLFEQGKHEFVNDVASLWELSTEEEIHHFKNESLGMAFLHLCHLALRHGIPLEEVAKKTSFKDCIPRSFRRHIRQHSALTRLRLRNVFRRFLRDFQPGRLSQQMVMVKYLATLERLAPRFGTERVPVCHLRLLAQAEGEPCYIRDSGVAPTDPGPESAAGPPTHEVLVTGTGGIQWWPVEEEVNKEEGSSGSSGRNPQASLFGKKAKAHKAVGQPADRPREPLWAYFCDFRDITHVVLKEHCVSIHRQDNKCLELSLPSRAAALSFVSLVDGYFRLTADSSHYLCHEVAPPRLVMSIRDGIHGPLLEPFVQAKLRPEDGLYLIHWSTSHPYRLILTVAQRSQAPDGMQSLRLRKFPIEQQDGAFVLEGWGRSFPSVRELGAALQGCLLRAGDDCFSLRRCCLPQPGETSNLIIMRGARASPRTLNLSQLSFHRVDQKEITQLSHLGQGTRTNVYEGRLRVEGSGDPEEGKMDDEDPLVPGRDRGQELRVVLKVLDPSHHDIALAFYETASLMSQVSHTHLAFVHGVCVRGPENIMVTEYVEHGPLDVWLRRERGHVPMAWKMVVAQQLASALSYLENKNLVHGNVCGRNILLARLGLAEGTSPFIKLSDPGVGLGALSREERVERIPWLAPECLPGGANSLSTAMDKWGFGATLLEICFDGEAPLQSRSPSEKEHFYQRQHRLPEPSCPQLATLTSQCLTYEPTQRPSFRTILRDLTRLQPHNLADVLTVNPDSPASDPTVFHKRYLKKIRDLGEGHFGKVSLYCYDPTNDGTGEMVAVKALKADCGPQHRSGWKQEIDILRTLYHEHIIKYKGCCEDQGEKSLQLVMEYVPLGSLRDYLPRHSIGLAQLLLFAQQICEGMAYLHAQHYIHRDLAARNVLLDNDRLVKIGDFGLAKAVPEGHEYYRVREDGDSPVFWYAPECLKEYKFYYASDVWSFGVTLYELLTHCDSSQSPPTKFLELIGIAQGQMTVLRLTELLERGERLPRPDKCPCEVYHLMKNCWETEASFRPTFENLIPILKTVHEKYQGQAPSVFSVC
Sequence of 5-hydroxytryptamine receptor 1B (Homo sapiens) (P28222 whole entry): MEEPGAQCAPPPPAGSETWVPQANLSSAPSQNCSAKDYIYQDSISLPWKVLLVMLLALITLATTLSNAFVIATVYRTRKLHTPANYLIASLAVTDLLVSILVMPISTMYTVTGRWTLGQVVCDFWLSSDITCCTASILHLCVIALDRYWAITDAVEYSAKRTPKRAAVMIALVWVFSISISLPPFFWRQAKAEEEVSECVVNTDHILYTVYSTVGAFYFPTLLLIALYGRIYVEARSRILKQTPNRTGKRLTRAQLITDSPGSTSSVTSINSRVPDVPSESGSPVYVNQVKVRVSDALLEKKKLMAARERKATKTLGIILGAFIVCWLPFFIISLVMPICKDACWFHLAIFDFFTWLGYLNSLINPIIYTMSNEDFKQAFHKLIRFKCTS
Sequence of Alpha-2C adrenergic receptor (Homo sapiens) (P18825 whole entry): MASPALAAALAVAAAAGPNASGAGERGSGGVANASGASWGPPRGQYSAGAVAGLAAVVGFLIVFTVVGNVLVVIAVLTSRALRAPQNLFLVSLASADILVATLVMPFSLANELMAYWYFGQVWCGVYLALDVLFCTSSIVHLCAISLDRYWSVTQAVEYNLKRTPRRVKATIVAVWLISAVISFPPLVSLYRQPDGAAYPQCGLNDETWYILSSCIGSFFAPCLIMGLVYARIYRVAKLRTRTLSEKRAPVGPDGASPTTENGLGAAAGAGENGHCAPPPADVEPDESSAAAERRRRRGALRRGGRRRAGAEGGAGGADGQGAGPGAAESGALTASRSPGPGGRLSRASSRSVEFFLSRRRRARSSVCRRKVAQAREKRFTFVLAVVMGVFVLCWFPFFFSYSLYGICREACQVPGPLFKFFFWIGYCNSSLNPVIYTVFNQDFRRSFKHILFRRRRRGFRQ
Sequence of Alpha-1A adrenergic receptor (Homo sapiens) (P35348 whole entry): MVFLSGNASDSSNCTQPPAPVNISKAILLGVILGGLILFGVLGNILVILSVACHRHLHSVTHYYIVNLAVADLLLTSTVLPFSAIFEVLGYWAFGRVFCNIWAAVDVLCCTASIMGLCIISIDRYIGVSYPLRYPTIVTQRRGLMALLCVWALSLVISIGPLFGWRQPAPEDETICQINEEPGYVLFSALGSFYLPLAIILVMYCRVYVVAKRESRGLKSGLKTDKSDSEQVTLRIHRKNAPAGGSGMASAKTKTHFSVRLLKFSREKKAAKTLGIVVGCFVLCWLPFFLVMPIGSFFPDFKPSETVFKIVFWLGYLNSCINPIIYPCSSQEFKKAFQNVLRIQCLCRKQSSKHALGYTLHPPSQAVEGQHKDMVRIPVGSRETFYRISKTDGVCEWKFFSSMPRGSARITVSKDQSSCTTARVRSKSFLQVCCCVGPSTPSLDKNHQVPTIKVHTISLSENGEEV
Sequence of Phosphatidylinositol 4,5-bisphosphate 3-kinase catalytic subunit beta isoform (Homo sapiens) (P42338 whole entry, looked up, canonical isoform): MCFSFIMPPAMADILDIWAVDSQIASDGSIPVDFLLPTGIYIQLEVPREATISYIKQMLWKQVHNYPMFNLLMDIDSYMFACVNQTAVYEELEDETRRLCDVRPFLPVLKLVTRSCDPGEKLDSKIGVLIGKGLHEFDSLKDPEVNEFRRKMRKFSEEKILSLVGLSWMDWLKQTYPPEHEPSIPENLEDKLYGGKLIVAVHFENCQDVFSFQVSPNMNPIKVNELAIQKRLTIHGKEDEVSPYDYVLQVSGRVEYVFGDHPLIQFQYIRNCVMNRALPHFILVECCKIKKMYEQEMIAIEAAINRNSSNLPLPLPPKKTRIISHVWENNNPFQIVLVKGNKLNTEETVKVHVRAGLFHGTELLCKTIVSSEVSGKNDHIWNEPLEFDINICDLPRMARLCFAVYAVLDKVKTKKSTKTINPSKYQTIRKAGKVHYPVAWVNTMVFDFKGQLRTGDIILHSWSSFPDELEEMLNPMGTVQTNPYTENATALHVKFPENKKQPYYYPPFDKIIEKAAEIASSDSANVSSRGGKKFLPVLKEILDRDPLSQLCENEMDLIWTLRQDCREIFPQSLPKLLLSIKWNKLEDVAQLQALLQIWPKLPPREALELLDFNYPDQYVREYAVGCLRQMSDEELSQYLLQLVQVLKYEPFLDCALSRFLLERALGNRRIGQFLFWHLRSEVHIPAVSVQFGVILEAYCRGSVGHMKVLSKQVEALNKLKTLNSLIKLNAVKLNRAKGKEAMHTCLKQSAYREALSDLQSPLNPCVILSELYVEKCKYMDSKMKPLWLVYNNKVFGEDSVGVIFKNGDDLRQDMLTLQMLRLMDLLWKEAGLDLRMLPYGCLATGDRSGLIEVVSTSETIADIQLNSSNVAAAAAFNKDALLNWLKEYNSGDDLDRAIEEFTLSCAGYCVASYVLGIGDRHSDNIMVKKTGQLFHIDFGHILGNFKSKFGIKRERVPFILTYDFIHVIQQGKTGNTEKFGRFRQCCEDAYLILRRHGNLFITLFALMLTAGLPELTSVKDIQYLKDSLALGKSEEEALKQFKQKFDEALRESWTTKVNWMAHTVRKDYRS

| Compound | inhibition [1] [%] | residual activity [2] [%] | residual activity [3] [%] | residual activity [4] [%] | inhibition [5] [%] | residual activity [6] [%] | inhibition [7] [%] | residual activity [8] [%] | residual activity [9] [%] | residual activity [10] [%] |
| --- | --- | --- | --- | --- | --- | --- | --- | --- | --- | --- |
| CC1=C(C#N)C(c2ccc3c(c2)c(NC(=O)c2ccccc2C)nn3C)C(C#N)=C(C)N1 [BAY-974] | 10.2 | 73 | 97 | 100 | 4.12 | 82 | 1.96 | 86 | 86 | 100 |
| CCc1ccccc1C(=O)Nc1n[nH]c2c(C)c(F)c(C3C(C#N)=C(C)N(C)C(C)=C3C#N)cc12 [BAY-3827] | 10 | 99 | 100 | 98 | 9.48 | 100 | 6.85 | 29 | 100 | 100 |
